Experimental data published in US20140107109A1, “AMINO-DIHYDROTHIAZINE AND AMINO-DIOXIDO DIHYDROTHIAZINE COMPOUNDS AS BETA-SECRETASE ANTAGONISTS AND METHODS OF USE” (Amgen Inc., priority 2012, published 2014).

How the values were obtained:
[1] = target: T1, Cathepsin D (Cat D) (Homo sapiens, UniProt P07339); test: In vitro enzymatic Cathepsin D (Cat D) FRET assay; format: biochemical; conditions: read-out: CatD IC50
T1 construct: Recombinant Cat D was expressed in CHO cells; made in house; host or cells: CHO cells
T1 sequence (P07339 65-412, species assumed): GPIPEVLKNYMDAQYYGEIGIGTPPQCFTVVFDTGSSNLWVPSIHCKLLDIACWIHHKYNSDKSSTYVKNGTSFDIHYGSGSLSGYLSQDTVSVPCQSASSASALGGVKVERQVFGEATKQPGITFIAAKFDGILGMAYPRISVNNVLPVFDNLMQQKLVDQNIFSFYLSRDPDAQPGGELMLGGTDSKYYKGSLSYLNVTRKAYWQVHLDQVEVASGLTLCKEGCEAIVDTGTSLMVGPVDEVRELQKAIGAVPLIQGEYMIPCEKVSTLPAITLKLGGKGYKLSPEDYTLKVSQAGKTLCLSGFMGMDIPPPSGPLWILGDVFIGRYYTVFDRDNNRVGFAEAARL
Method in brief: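 Recombinant Cat D expressed in CHO cells, used at 9 nM and pre-incubated one hour with serially diluted inhibitor in DMSO. Peptide substrate carries a fluorophore and quencher flanking the cleavage site; reaction stopped with Tris buffer raising pH to neutrality, then fluorescence read.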

[2] = test system: Aβ40 in conditioned medium of cells stably expressing Amyloid Precursor Protein (APP); test: In vitro BACE cell-based assay (HEK cell assay), Aβ40 sandwich ELISA; conditions: Homo sapiens, HEK293; average IC50, HEK cell assay
Method in brief: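 APP-stably expressing cells (40K/well, grown 24 h in DMEM/10% FBS) were treated 24 h with compounds in 10-point dose response starting at 100 μM or 10 μM, 0.1% DMSO final. Secreted Aβ40 was measured by sandwich ELISA (pAb40 capture, biotinylated 6E10 detection, europium time-resolved fluorescence); IC50 from percent inhibition.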

[3] = target: Beta Secretase enzyme (BACE1) (Homo sapiens, UniProt P56817); test: In vitro enzymatic BACE FRET assay; format: biochemical; conditions: average IC50, enzyme assay; read-out: BACE1 FRET assay IC50
Beta Secretase enzyme (BACE1), sequence (P56817 46-501): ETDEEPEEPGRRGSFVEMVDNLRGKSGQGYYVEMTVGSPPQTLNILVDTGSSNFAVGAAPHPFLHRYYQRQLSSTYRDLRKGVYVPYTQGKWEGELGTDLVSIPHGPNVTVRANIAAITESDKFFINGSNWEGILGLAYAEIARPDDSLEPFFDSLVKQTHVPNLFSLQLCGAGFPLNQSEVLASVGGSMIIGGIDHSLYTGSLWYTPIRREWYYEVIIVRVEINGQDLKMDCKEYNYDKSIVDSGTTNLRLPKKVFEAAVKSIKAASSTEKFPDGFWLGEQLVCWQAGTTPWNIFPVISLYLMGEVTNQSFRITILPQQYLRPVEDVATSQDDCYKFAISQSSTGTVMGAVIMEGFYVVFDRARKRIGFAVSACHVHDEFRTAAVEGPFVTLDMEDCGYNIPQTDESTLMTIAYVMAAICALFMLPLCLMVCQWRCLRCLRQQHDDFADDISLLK
Method in brief: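 BACE1 cleavage of a 50 nM fluorophore/quencher peptide FRET substrate ran for one hour in 0.05 M acetate pH 4.2, 10% DMSO, 100 uM genapol. Tris buffer raised pH to neutrality to stop the reaction before fluorescence was read (excitation 488 nm, […]).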

| IC50 [1] | IC50 [2] | IC50 [3] | SMILES |
| --- | --- | --- | --- |
| 113 µM | 0.7 nM | 0.61 nM | CC1(C)C(N)=N[C@](C)(c2cc(NC(=O)c3ccc(C(F)(F)F)cn3)ccc2F)CS1(=O)=O [Example 342, N-(3-((3R)-5-amino-3,6,6-trimethyl-1,1-dioxido-3,6-dihydro-2H-1,4-thiazin-3-yl)-4-fluorophenyl)-5-(trifluoromethyl)-2-pyridinecarboxamide] |
| 234 µM | 10.7 nM | 5.11 nM | CC1(C)C(N)=N[C@](C)(c2cc(NC(=O)c3cc4ccccc4cn3)ccc2F)CS1(=O)=O [Example 343, N-(3-((3R)-5-amino-3,6,6-trimethyl-1,1-dioxido-3,6-dihydro-2H-1,4-thiazin-3-yl)-4-fluorophenyl)-3-isoquinolinecarboxamide] |
| 75.6 µM | 71.3 nM | 31.3 nM | COc1cc(Cl)ccc1C(=O)Nc1ccc(F)c([C@]2(C)CS(=O)(=O)C(C)(C)C(N)=N2)c1 [Example 345, N-(3-((3R)-5-amino-3,6,6-trimethyl-1,1-dioxido-3,6-dihydro-2H-1,4-thiazin-3-yl)-4-fluorophenyl)-4-chloro-2-methoxybenzamide] |
| > 14.8 µM | 2.7 nM | 0.52 nM | COCc1cc(Cl)cnc1C(=O)Nc1ccc(F)c([C@]2(C)CS(=O)(=O)C(C)(C)C(N)=N2)c1 [Example 351, N-(3-((3R)-5-amino-3,6,6-trimethyl-1,1-dioxido-3,6-dihydro-2H-1,4-thiazin-3-yl)-4-fluorophenyl)-5-chloro-3-(methoxymethyl)-2-pyridinecarboxamide] |
| 410 µM | 0.9 nM | 0.8 nM | CC1(C)C(N)=N[C@](C)(c2cc(NC(=O)c3ncc(Cl)cc3Br)ccc2F)CS1(=O)=O [Example 352, N-(3-((3R)-5-amino-3,6,6-trimethyl-1,1-dioxido-3,6-dihydro-2H-1,4-thiazin-3-yl)-4-fluorophenyl)-3-bromo-5-chloro-2-pyridinecarboxamide] |
| 708 µM | 16.6 nM | 6.52 nM | Cc1cc(Cl)ccc1C(=O)Nc1ccc(F)c([C@]2(C)CS(=O)(=O)C(C)(C)C(N)=N2)c1 [Example 353, N-(3-((3R)-5-amino-3,6,6-trimethyl-1,1-dioxido-3,6-dihydro-2H-1,4-thiazin-3-yl)-4-fluorophenyl)-4-chloro-2-methylbenzamide] |
| 1330 µM | 18.7 nM | 42.4 nM | COc1ccc(C(=O)Nc2ccc(F)c([C@]3(C)CS(=O)(=O)C(C)(C)C(N)=N3)c2)c(F)c1 [Example 354, N-(3-((3R)-5-amino-3,6,6-trimethyl-1,1-dioxido-3,6-dihydro-2H-1,4-thiazin-3-yl)-4-fluorophenyl)-2-fluoro-4-methoxybenzamide] |
| 710 µM | 1.2 nM | 0.35 nM | CC1(C)C(N)=N[C@](C)(c2cc(NC(=O)c3ncc(C#N)cc3Cl)ccc2F)CS1(=O)=O [Example 356, N-(3-((3R)-5-amino-3,6,6-trimethyl-1,1-dioxido-3,6-dihydro-2H-1,4-thiazin-3-yl)-4-fluorophenyl)-3-chloro-5-cyano-2-pyridinecarboxamide] |
| 228 µM | 2.5 nM | 2.83 nM | COc1cnc(C(=O)Nc2ccc(F)c([C@]3(C)CS(=O)(=O)C(C)(C)C(N)=N3)c2)c(C)c1 [Example 357, N-(3-((3R)-5-amino-3,6,6-trimethyl-1,1-dioxido-3,6-dihydro-2H-1,4-thiazin-3-yl)-4-fluorophenyl)-5-methoxy-3-methyl-2-pyridinecarboxamide] |

The remaining lines, values behind:

| SMILES | IC50 [1] | IC50 [2] | IC50 [3] |
| --- | --- | --- | --- |
| CC1(C)C(N)=N[C@](C)(c2cc(NC(=O)c3cnc(OC(F)F)cn3)ccc2F)CS1(=O)=O [Example 344, N-(3-((3R)-5-amino-3,6,6-trimethyl-1,1-dioxido-3,6-dihydro-2H-1,4-thiazin-3-yl)-4-fluorophenyl)-5-(difluoromethoxy)-2-pyrazinecarboxamide] | 388 µM | 0.4 nM | 0.53 nM |
| CC1(C)C(N)=N[C@](C)(c2cc(NC(=O)c3cnc(OCC(F)(F)F)cn3)ccc2F)CS1(=O)=O [Example 346, N-(3-((3R)-5-amino-3,6,6-trimethyl-1,1-dioxido-3,6-dihydro-2H-1,4-thiazin-3-yl)-4-fluorophenyl)-5-(2,2,2-trifluoroethoxy)-2-pyrazinecarboxamide] | > 400 µM | 1.4 nM | 0.45 nM |
| Cc1cc(Cl)cnc1C(=O)Nc1cnc(F)c([C@]2(C)CS(=O)(=O)C(C)(C)C(N)=N2)c1 [Example 347, N-(5-((3R)-5-amino-3,6,6-trimethyl-1,1-dioxido-3,6-dihydro-2H-1,4-thiazin-3-yl)-6-fluoro-3-pyridinyl)-5-chloro-3-methyl-2-pyridinecarboxamide] | 71 µM | 1.8 nM | 1.1 nM |
| CC1(C)C(N)=N[C@](C)(c2cc(NC(=O)c3ncc(C(F)F)cc3Cl)cnc2F)CS1(=O)=O [Example 348, N-(5-((3R)-5-amino-3,6,6-trimethyl-1,1-dioxido-3,6-dihydro-2H-1,4-thiazin-3-yl)-6-fluoro-3-pyridinyl)-3-chloro-5-(difluoromethyl)-2-pyridinecarboxamide] | 490 µM | 9.92 nM | 5.89 nM |
| CC#CCOc1cnc(C(=O)Nc2cnc(F)c([C@]3(C)CS(=O)(=O)C4(CCC4)C(N)=N3)c2)c(C)c1 [Example 349, N-(5-((7R)-9-amino-7-methyl-5,5-dioxido-5-thia-8-azaspiro[3.5]non-8-en-7-yl)-6-fluoro-3-pyridinyl)-5-(2-butyn-1-yloxy)-3-methyl-2-pyridinecarboxamide] | 196 µM | 1.3 nM | 0.78 nM |
| Cc1cc(OCC(F)(F)F)cnc1C(=O)Nc1cnc(F)c([C@]2(C)CS(=O)(=O)C3(CCC3)C(N)=N2)c1 [Example 350, N-(5-((7R)-9-amino-7-methyl-5,5-dioxido-5-thia-8-azaspiro[3.5]non-8-en-7-yl)-6-fluoro-3-pyridinyl)-3-methyl-5-(2,2,2-trifluoroethoxy)-2-pyridinecarboxamide] | > 400 µM | 34.5 nM | 6.06 nM |
| Cc1cc(C#N)cnc1C(=O)Nc1ccc(F)c([C@]2(C)CS(=O)(=O)C(C)(C)C(N)=N2)c1 [Example 355, N-(3-((3R)-5-amino-3,6,6-trimethyl-1,1-dioxido-3,6-dihydro-2H-1,4-thiazin-3-yl)-4-fluorophenyl)-5-cyano-3-methyl-2-pyridinecarboxamide] | 283 µM | 0.5 nM | 0.3 nM |
| Cc1cc(OC(F)F)cnc1C(=O)Nc1cnc(F)c([C@]2(C)CS(=O)(=O)C3(CCC3)C(N)=N2)c1 [Example 358, N-(5-((7R)-9-amino-7-methyl-5,5-dioxido-5-thia-8-azaspiro[3.5]non-8-en-7-yl)-6-fluoro-3-pyridinyl)-5-(difluoromethoxy)-3-methyl-2-pyridinecarboxamide] | 139 µM | 9.5 nM | 6.42 nM |
| Cc1cc(Cl)cnc1C(=O)Nc1cnc(F)c([C@]2(C)CS(=O)(=O)C3(CCC3)C(N)=N2)c1 [Example 359, N-(5-((7R)-9-amino-7-methyl-5,5-dioxido-5-thia-8-azaspiro[3.5]non-8-en-7-yl)-6-fluoro-3-pyridinyl)-5-chloro-3-methyl-2-pyridinecarboxamide] | 105 µM | 5.21 nM | 2.2 nM |
